We go through eleven compounds from patent publication EP2951180B1, “2,6,7,8 SUBSTITUTED PURINES AS HDM2 INHIBITORS” (Merck Sharp & Dohme Corp., priority 2013, dated 2014).

For one test, the target named is T1, HDM2 (Homo sapiens, UniProt Q00987).
T1 construct: Thioredoxin (N); made in house; host or cells: E. coli strain BL21(DE3)Rosetta
T1 sequence (Q00987 17-125): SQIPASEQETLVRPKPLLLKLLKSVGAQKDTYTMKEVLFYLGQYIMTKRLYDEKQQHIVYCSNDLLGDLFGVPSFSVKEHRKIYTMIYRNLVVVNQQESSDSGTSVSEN
Put plainly: FRET assay (HDM2 inhibition; method not described in this part). Format: binding. The following applies: Table 1.
With `C[C@@H](Nc1nc(C(=O)O)nc2nc(-c3ccc4occc4c3)n(Cc3ccc(C(F)(F)F)cc3)c12)C1CCC1` [Example 1.117, 8-(1-benzofuran-5-yl)-6-{[(1R)-1-cyclobutylethyl]amino}-7-[4-(trifluoromethyl)benzyl]-7H-purine-2-carboxylic acid], half-maximal inhibition (IC50) required 16.7 nM. In the case of `C[C@@H](Nc1nc(C(=O)O)nc2nc(-c3ccc(OC(F)F)cc3)n(Cc3ccc(C(F)(F)F)cc3)c12)C1CCC1` [Example 1.100, 6-{[(1R)-1-cyclobutylethyl]amino}-8-[4-(difluoromethoxy)phenyl]-7-[4-(trifluoromethyl)benzyl]-7H-purine-2-carboxylic acid], 51.8 nM corresponded to half-maximal inhibition (IC50). `COc1ccc(-c2nc3nc(C(=O)O)nc(N[C@H](C)C4CCC4)c3n2Cc2ccc(C(F)(F)F)cc2)cc1F` [Example 1.104, 6-{[(1R)-1-cyclobutylethyl]amino}-8-(3-fluoro-4-methoxyphenyl)-7-[4-(trifluoromethyl)benzyl]-7H-purine-2-carboxylic acid] came in with an IC50 of 17.4 nM. The same measure, in the same setting: for `C[C@@H](Nc1nc(C(=O)O)nc2nc(-c3cccc(-c4ccccc4)n3)n(Cc3ccc(C(F)(F)F)cc3)c12)C1CCC1` [Example 1.63, 6-{[(1R)-1-cyclobutylethyl]amino}-8-(6-phenylpyridin-2-yl)-7-[4-(trifluoromethyl)benzyl] - 7H-purine-2-carboxylic acid] the value was 324 nM; for `C[C@@H](Nc1nc(C(=O)O)nc2nc(-c3cc(C4CC4)ccn3)n(Cc3ccc(C(F)(F)F)c(F)c3)c12)C1CCC1` [Example 1.77, 6-{[(1R)-1-cyclobutylethyl]amino}-8-(4-cyclopropylpyridin-2-yl)-7-[3-fluoro-4-(trifluoromethyl)benzyl]-7H-purine-2-carboxylic acid], 20 nM.

Consider `CC(C)c1cc(-c2nc3nc(C(=O)O)nc(N[C@H](C)C4CCC4)c3n2Cc2ccc(C(F)(F)F)cc2)ccn1` [Example 1.4, (R)-6-((1-cyclobutylethyl)amino)-8-(2-isopropylpyridin-4-yl)-7-(4-(trifluoromethyl)benzyl)-7H-purine-2-carboxylic acid], for which 58.8 nM corresponded to half-maximal inhibition (IC50). On to `C[C@@H](Nc1nc(C(=O)O)nc2nc(-c3cc(C(C)(C)O)ccn3)n(Cc3ccc(C(F)(F)F)cc3)c12)C1CCC1` [Example 1.27, 6-{[(1R)-1-cyclobutylethyl]amino}-8-[4-(1-hydroxy-1-methylethyl)pyridin-2-yl]-7-[4-(trifluoromethyl)benzyl]-7H-purine-2-carboxylic acid], for which it took 9.41 nM to reach half-maximal inhibition (IC50).

Staying with this test, now noted: Table 2.
The compound `C[C@@H](Nc1nc(C(=O)O)nc2nc(-c3ccccc3C(N)=O)n(Cc3ccc(C(F)(F)F)cc3)c12)C1CC1` [Example 2.78, 8-(2-carbamoylphenyl)-6-{[(1R)-1-cyclopropylethyl]amino}-7-[4-(trifluoromethyl)benzyl]-7H-purine-2-carboxylic acid] displayed an IC50 of 219 nM.

As to `C[C@@H](Nc1nc(C(=O)O)nc2nc(-c3cccc(Cl)c3)n(Cc3ccc(C(F)(F)F)cc3)c12)C1CC1` [Example 2.22, 8-(3-chlorophenyl)-6-{[(1R)-1-cyclopropylethyl]amino}-7-[4-(trifluoromethyl)benzyl]-7H-purine-2-carboxylic acid], the IC50 was 124 nM. On to `C[C@@H](Nc1nc(C(=O)O)nc2nc(-c3cccnc3)n(Cc3ccc(C(F)(F)F)cc3)c12)C1CC1` [Example 2.44, 6-{[(1R)-1-cyclopropylethyl]amino}-8-pyridin-3-yl-7-[4-(trifluoromethyl)benzyl]-7H-purine-2-carboxylic acid], for which the IC50 worked out at 640 nM.

The same test, now with this note: Table 3.
Consider `C[C@@H](Nc1nc(C(=O)O)nc2nc(-c3ncco3)n(Cc3ccc(C(F)(F)F)cc3)c12)C1CCC1` [Example 3.5, 6-{[(1R)-1-cyclobutylethyl]amino}-8-(1,3-oxazol-2-yl)-7-[4-(trifluoromethyl)benzyl] -7H-purine-2-carboxylic acid], for which the IC50 is 30 nM.

The IC50 is the concentration that inhibits the measured activity by half. Lower therefore signals inhibition by little substance.
